Data taken from patent US8415271B2, “Biofertilizer formulation” (priority 2007, dated 2013).

Test system: wheat
Assay: Field grown wheat, harvest parameters
Type: in vivo, Triticum aestivum
Settings: seeds not coated
Description: Effect of the psychrorphilic biofertilizer was tested on field conditions on wheat cultivation in Victoria City, Temuco, Chile. Wheat seeds were disinfected and coated with the psychrophilic bacterial biofertilizer of the present invention as described in Example 3. Control seeds were disinfected and treated with water. A field of one hectare was directly sowed with the seeds using a random block experimental design with four repetitions per treatments. Further, total yield after the harvest was measured and the yield per unit area of the crop field was calculated.

Question: What does the source list for `O=P(=O)OP(=O)=O` [Strain P2O5, P2O5]?
Answer: Weight 1000 grains (50 Kg P2O5/ha): 33 ± 3 g; Yield (50 Kg P2O5/ha): 4.8 ± 0.5 ton/ha; Weight 1000 grains (100 Kg P2O5/ha): 37 ± 3 g; Yield (100 Kg P2O5/ha): 5.1 ± 0.3 ton/ha; Weight 1000 grains (150 Kg P2O5/ha): 35 ± 3 g; Yield (150 Kg P2O5/ha): 5.0 ± 0.4 ton/ha
